Measurements: patent US20070049564A1 (Wyeth, priority 2005, published 2007)
Values after ≈ are worked out from the molar mass of the structure shown. Like-named read-outs stand apart in the source and are kept apart here.

Experiments:
[1] = system: E. coli GC 2232; assay: MIC, broth microdilution; settings: Escherichia coli, GC2232, E. coli GC 2232
[2] = system: E. coli GC 2272; assay: MIC, broth microdilution; settings: Escherichia coli, GC2272, E. coli GC 2272
[3] = system: E. coli GC 2231; assay: MIC, broth microdilution; settings: Escherichia coli, GC2231, E. coli GC 2231
[4] = system: S. epidermidis GC 4935; assay: MIC, broth microdilution; settings: Staphylococcus epidermidis, GC4935, S. epidermidis GC 4935
Experimental: (§1) Antimicrobial susceptibility testing. The in vitro activities of the antibiotics are determined by the broth microdilution method as recommended by the National Committee for Clinical Laboratory Standards (NCCLS) (1). Mueller-Hinton II broth (MHBII)(BBL Cockeysville, Md.) is the medium employed in the testing procedures. Microtiter plates containing serial dilutions of each antimicrobial agent are inoculated with each organism to yield the appropriate density (10^5 CFU/ml) in a 100 μl final volume. The plates are incubated for 18-22 hours at 35° C. in ambient air.
(§2) Representative compounds were first incubated in mouse serum for an hour prior to the in vitro testing against a panel of selected gram-positive and gram-negative bacteria strains. All compounds were also pre-incubated in water for an hour prior to testing as control. Representative compounds of Formula I were incubated in human serum prior to MIC determination.

[5] = system: S. aureus GC 2216; assay: MIC, broth microdilution; settings: Staphylococcus aureus, GC2216, S. aureus GC 2216
[6] = system: E. faecalis GC 2265; assay: MIC, broth microdilution; settings: Enterococcus faecalis, GC2265, E. faecalis GC 2265
[7] = system: E. faecalis GC 4555; assay: MIC, broth microdilution; settings: Enterococcus faecalis, GC4555, E. faecalis GC 4555
[8] = system: E. coli; assay: Range of MIC for E. coli strains; settings: Escherichia coli
Experimental: as §1, §2

[9] = system: c. albicans GC 3066; assay: MIC, broth microdilution
[10] = system: Staph. aureus Smith; assay: In vivo activity (oral, iv; ED50) against Staph. aureus Smith in mice
Experimental: Representative examples of compounds of Formula I were tested for the oral efficacy using S. aureus Smith in mice.

[11] = system: S. pneumoniae* GC 4465; assay: MIC, broth microdilution; settings: Streptococcus pneumoniae, S. pneumoniae* GC 4465
[12] = system: S. aureus GC 4536; assay: MIC, broth microdilution; settings: Staphylococcus aureus, GC4536, S. aureus GC 4536
[13] = system: E. coli GC 2236; assay: MIC, broth microdilution; settings: Escherichia coli, GC2236, E. coli GC 2236
[14] = system: S. pneumoniae+ GC 4465; assay: MIC, broth microdilution; settings: Streptococcus pneumoniae, S. pneumoniae+ GC 4465
[15] = system: E. faecalis GC 2267; assay: MIC, broth microdilution; settings: Enterococcus faecalis, GC2267, E. faecalis GC 2267
[16] = system: E. faecium GC 2243; assay: MIC, broth microdilution; settings: Enterococcus faecium, GC2243, E. faecium GC 2243
[17] = system: Staph.; assay: Range of MIC for Staph. strains, including MRSA; settings: Staphylococcus aureus, MRSA
[18] = system: P. aeruginosa GC 2214; assay: MIC, broth microdilution; settings: Pseudomonas aeruginosa, GC2214, P. aeruginosa GC 2214
[19] = system: S. aureus GC 1131; assay: MIC, broth microdilution; settings: Staphylococcus aureus, GC1131, S. aureus GC 1131
[20] = system: E. faecalis GC 2242; assay: MIC, broth microdilution; settings: Enterococcus faecalis, GC2242, E. faecalis GC 2242
[21] = 20 h, read-out: Range of MIC, E. coli (Mouse Serum)
[22] = read-out: Minimum inhibitory concentration (MIC), E. coli (mouse serum)
[23] = read-out: Minimum inhibitory concentration (MIC), E. coli (water)
[24] = read-out: Range of MIC, E. coli (Water)
[25] = c. albicans GC 3066, Water pre-incubation
[26] = read-out: Minimum inhibitory concentration (MIC), Staph. (mouse serum)
[27] = read-out: Minimum inhibitory concentration (MIC), Staph. (water)
[28] = read-out: Range of MIC, Staph (Mouse Serum)
[29] = read-out: Range of MIC, Staph (Water)

For `CCCCN(CC(=O)Nc1cc(N(C)C)c2c(c1O)C(=O)C1=C(O)[C@]3(O)C(=O)C(C(N)=O)=C(O)[C@@H](N(C)C)C3CC1C2)C(=O)OCOC(=O)C(C)C` (stereo partly drawn) [Example 1, ({[(2-{[(7S,10aS)-9-(aminocarbonyl)-4,7-bis(dimethylamino)-1,8,10a,11-tetrahydroxy-10,12-dioxo-5,5a,6,6a,7,10,10a,12-octahydrotetracen-2-yl]amino}-2-oxoethyl)(butyl)amino]carbonyl}oxy)methyl 2-methylpropanoate], the MIC ([1]; Mouse Serum pre-incubation) was 0.5 mg/L (≈ 0.685 µM), the MIC ([1]; Water pre-incubation) was 16 mg/L (≈ 21.9 µM) and the MIC ([2]; Mouse Serum pre-incubation) was 1 mg/L (≈ 1.37 µM). The MIC ([2]; Water pre-incubation) was 16 mg/L (≈ 21.9 µM), the MIC ([3]; Mouse Serum pre-incubation) was 1 mg/L (≈ 1.37 µM) and the MIC ([3]; Water pre-incubation) was 64 mg/L (≈ 87.7 µM). The MIC ([4]; Mouse Serum pre-incubation) was 2 mg/L (≈ 2.74 µM), the MIC ([4]; Water pre-incubation) was 8 mg/L (≈ 11 µM) and the MIC ([5]; Mouse Serum pre-incubation) was 1 mg/L (≈ 1.37 µM). The MIC ([5]; Water pre-incubation) was 4 mg/L (≈ 5.48 µM), the MIC ([6]; Mouse Serum pre-incubation) was 1 mg/L (≈ 1.37 µM) and the MIC ([6]; Water pre-incubation) was 4 mg/L (≈ 5.48 µM). The MIC ([7]; Mouse Serum pre-incubation) was 1 mg/L (≈ 1.37 µM), the MIC ([7]; Water pre-incubation) was 4 mg/L (≈ 5.48 µM) and the MIC [8, 21] was 0.5 to 1 mg/L (≈ 0.685 to 1.37 µM). The MIC [8, 22] was 0.5 to 1 mg/L (≈ 0.685 to 1.37 µM), the MIC [8, 23] was 16 to 64 mg/L (≈ 21.9 to 87.7 µM) and the MIC [8, 24] was 16 to 64 mg/L (≈ 21.9 to 87.7 µM). For the same compound, the MIC ([9]; Candida albicans, GC3066) was over 64 mg/L, the MIC [9, 25] was over 64 UG/ML and the ED50 ([10]; Staphylococcus aureus, in Mus musculus, iv, read-out: ED50 SIV (Staph aureus Smith)) was 0.6 mg/kg. It also gave an ED50 ([10]; Staphylococcus aureus, in Mus musculus, po, read-out: ED50 SOD (Staph aureus Smith)) of 4.7 mg/kg, an MIC ([11]; Mouse Serum pre-incubation) of 0.5 mg/L (≈ 0.685 µM) and an MIC ([11]; Water pre-incubation) of 0.25 mg/L (≈ 0.343 µM). The MIC ([12]; Mouse Serum pre-incubation) was 2 mg/L (≈ 2.74 µM), the MIC ([12]; Water pre-incubation) was 4 mg/L (≈ 5.48 µM) and the MIC ([13]; Mouse Serum pre-incubation) was 1 mg/L (≈ 1.37 µM). It also gave an MIC ([13]; Water pre-incubation) of 16 mg/L (≈ 21.9 µM), an MIC ([14]; Mouse Serum pre-incubation) of 2 mg/L (≈ 2.74 µM) and an MIC ([14]; Water pre-incubation) of 2 mg/L (≈ 2.74 µM). It also gave an MIC ([15]; Mouse Serum pre-incubation) of 2 mg/L (≈ 2.74 µM), an MIC ([15]; Water pre-incubation) of 8 mg/L (≈ 11 µM) and an MIC ([16]; Mouse Serum pre-incubation) of 1 mg/L (≈ 1.37 µM). For the same compound, the MIC ([16]; Water pre-incubation) was 2 mg/L (≈ 2.74 µM), the MIC [17, 26] was 1 to 4 mg/L (≈ 1.37 to 5.48 µM) and the MIC [17, 27] was 1 to 8 mg/L (≈ 1.37 to 11 µM). It also gave an MIC [17, 28] of 1 to 4 mg/L (≈ 1.37 to 5.48 µM), an MIC [17, 29] of 1 to 8 mg/L (≈ 1.37 to 11 µM) and an MIC ([18]; Mouse Serum pre-incubation) of 32 mg/L (≈ 43.8 µM). The MIC ([18]; Water pre-incubation) was over 64 mg/L, the MIC ([19]; Mouse Serum pre-incubation) was 1 mg/L (≈ 1.37 µM) and the MIC ([19]; Water pre-incubation) was 4 mg/L (≈ 5.48 µM). It also gave an MIC ([20]; Mouse Serum pre-incubation) of 1 mg/L (≈ 1.37 µM) and an MIC ([20]; Water pre-incubation) of 4 mg/L (≈ 5.48 µM).

`CCCCN(CC(=O)Nc1cc(N(C)C)c2c(c1O)C(=O)C1=C(O)[C@]3(O)C(=O)C(C(N)=O)=C(O)[C@@H](N(C)C)C3CC1C2)C(=O)OCOC(=O)c1ccc(OC)cc1` (stereo partly drawn) [Example 2, ({[(2-{[(7S,10aS)-9-(aminocarbonyl)-4,7-bis(dimethylamino)-1,8,10a,11-tetrahydroxy-10,12-dioxo-5,5a,6,6a,7,10,10a,12-octahydrotetracen-2-yl]amino}-2-oxoethyl)(butyl)amino]carbonyl}oxy)methyl 4-methoxybenzoate] gave an MIC ([1]; Mouse Serum pre-incubation) of 2 mg/L (≈ 2.52 µM), an MIC ([1]; Water pre-incubation) of 64 mg/L (≈ 80.6 µM) and an MIC ([2]; Mouse Serum pre-incubation) of 1 mg/L (≈ 1.26 µM). For the same compound, the MIC ([2]; Water pre-incubation) was 64 mg/L (≈ 80.6 µM), the MIC ([3]; Mouse Serum pre-incubation) was 4 mg/L (≈ 5.04 µM) and the MIC ([3]; Water pre-incubation) was 64 mg/L (≈ 80.6 µM). The MIC ([4]; Mouse Serum pre-incubation) was 8 mg/L (≈ 10.1 µM), the MIC ([4]; Water pre-incubation) was 8 mg/L (≈ 10.1 µM) and the MIC ([5]; Mouse Serum pre-incubation) was 2 mg/L (≈ 2.52 µM). The MIC ([5]; Water pre-incubation) was 4 mg/L (≈ 5.04 µM), the MIC ([6]; Mouse Serum pre-incubation) was 4 mg/L (≈ 5.04 µM) and the MIC ([6]; Water pre-incubation) was 8 mg/L (≈ 10.1 µM). It also gave an MIC ([7]; Mouse Serum pre-incubation) of 2 mg/L (≈ 2.52 µM), an MIC ([7]; Water pre-incubation) of 4 mg/L (≈ 5.04 µM) and an MIC [8, 21] of 1 to 4 mg/L (≈ 1.26 to 5.04 µM). For the same compound, the MIC [8, 22] was 1 to 4 mg/L (≈ 1.26 to 5.04 µM), the MIC [8, 23] was 32 to 64 mg/L (≈ 40.3 to 80.6 µM) and the MIC [8, 24] was 32 to 64 mg/L (≈ 40.3 to 80.6 µM). It also gave an MIC ([9]; Candida albicans, GC3066) of over 64 mg/L, an MIC [9, 25] of over 64 UG/ML and an ED50 ([10]; Staphylococcus aureus, in Mus musculus, po, read-out: ED50 Staph Smith SOD) of 13.3 mg/kg. The ED50 ([10]; iv, read-out: ED50 Staph Smith SIV) was 0.71 mg/kg, the MIC ([11]; Mouse Serum pre-incubation) was 0.5 mg/L (≈ 0.63 µM) and the MIC ([11]; Water pre-incubation) was 0.25 mg/L (≈ 0.315 µM). It also gave an MIC ([12]; Mouse Serum pre-incubation) of 2 mg/L (≈ 2.52 µM), an MIC ([12]; Water pre-incubation) of 4 mg/L (≈ 5.04 µM) and an MIC ([13]; Mouse Serum pre-incubation) of 4 mg/L (≈ 5.04 µM). For the same compound, the MIC ([13]; Water pre-incubation) was 32 mg/L (≈ 40.3 µM), the MIC ([14]; Mouse Serum pre-incubation) was 2 mg/L (≈ 2.52 µM) and the MIC ([14]; Water pre-incubation) was 4 mg/L (≈ 5.04 µM). For the same compound, the MIC ([15]; Mouse Serum pre-incubation) was 4 mg/L (≈ 5.04 µM), the MIC ([15]; Water pre-incubation) was 4 mg/L (≈ 5.04 µM) and the MIC ([16]; Mouse Serum pre-incubation) was 1 mg/L (≈ 1.26 µM). For the same compound, the MIC ([16]; Water pre-incubation) was 4 mg/L (≈ 5.04 µM), the MIC [17, 26] was 1 to 8 mg/L (≈ 1.26 to 10.1 µM) and the MIC [17, 27] was 2 to 8 mg/L (≈ 2.52 to 10.1 µM). For the same compound, the MIC [17, 28] was 1 to 8 mg/L (≈ 1.26 to 10.1 µM), the MIC [17, 29] was 2 to 8 mg/L (≈ 2.52 to 10.1 µM) and the MIC ([18]; Mouse Serum pre-incubation) was over 64 mg/L. It also gave an MIC ([18]; Water pre-incubation) of over 64 mg/L, an MIC ([19]; Mouse Serum pre-incubation) of 2 mg/L (≈ 2.52 µM) and an MIC ([19]; Water pre-incubation) of 4 mg/L (≈ 5.04 µM). For the same compound, the MIC ([20]; Mouse Serum pre-incubation) was 4 mg/L (≈ 5.04 µM) and the MIC ([20]; Water pre-incubation) was 4 mg/L (≈ 5.04 µM).
